Data reported in patent US10561681B2, “Antimetastatic 2H-selenopheno[3,2-h]chromenes, synthesis thereof, and methods of using same agents” (Latvian Institute of Organic Synthesis, priority 2016, dated 2020).

System: Lewis lung carcinoma (LLC)
Test: Mouse non-metastatic cancer model, Lewis lung carcinoma s.c. in BALB/c mice
Assay type: in vivo
Conditions: s.c. Day 1, 2, 3, 4, 7, 8, 9, 10, 11; dose 20 mg/kg, total dose 180 mg/kg
Experimental: Six-week-old female ICR and BALB/c mice were purchased from the University of Tartu Laboratory Animal Centre (Estonia). The mice were housed five to a cage, and under standard conditions (21-23° C., 12 h light: dark cycle), fed ad libitum (R3 diet, Lactamin AB, Kimstad, Sweden) and observed daily. The experimental procedures involving experimental animals were carried out in accordance with the guidelines of the European Community, local laws and policies, and were approved by the Latvian Animal Protection Ethical Committee, the Food and Veterinary Service, Riga, Latvia.
In vivo studies were performed utilizing the mouse sarcoma CCRF-S180 II (CCL-8) and Lewis lung carcinoma (LLC) cell line. All cell lines were purchased from ATCC. The cells were grown in Dulbecco's modified Eagle's medium (Sigma) supplemented with 10% fetal calf serum (Sigma).
ICR mice were subcutaneously inoculated in the back with 5×10^6 CCL-8 cells and BALB/c mice were inoculated with 1×10^6 LLC (Lewis Lung Carcinoma) cells, which were suspended in 0.1 mL of PBS on day zero of the study. The compounds dissolved in DMSO and then in 0.1 mL water (DMSO final concentration 1%) were injected s.c. Mice in the untreated group were similarly given doses of 0.1 mL of water with DMSO. Tumor volume (tumor volume V=[…], a is maximal and b the minimal tumor diameter) was recorded twice per week. […]

COC(=O)c1cc2ccc3c(Br)c(CN4CCN(C)CC4)[se]c3c2oc1=O [Compound I-10, Methyl 7-bromo-8-((4-methylpiperazin-1-yl)methyl)-2-oxo-2H-selenopheno[3,2-h]chromene-3-carboxylate]
Anticancer activity in vivo (inhibition, %), Lewis Lung Carcinoma primary tumor growth: 34%
